Measured values published in patent US5580956A, “Phospholipase C-inhibiting peptides” (priority 1992, dated 1996).
Peptide text beside a SMILES is read from it. * marks the point of attachment. Benzoyl(2,5-(OH)2) = O=C(c1cc(O)ccc1O)*; Benzoyl(2,3-diOH) = O=C(c1cccc(O)c1O)*; Propanoyl(3-cHex) = O=C(CCC1CCCCC1)*; X1 = O=C(c1ccc(O)cc1O)*; X2 = O=C(c1ccc(=O)oc1)*

Assays:
PLC-γ1 = biological target: T1, PLC-γ1 (Bos taurus, UniProt P08487); experiment: PLC-inhibiting activity (release of [3H]inositol phosphate from [3H]PIP2); assay type: biochemical, bovine; details: PI-PLC-γ1, 37° C., 10 minutes
T1 construct: A sample (PLC-γ1) was prepared from bovine thymus according to the method of Y. Homma et al; from tissue; host or cells: bovine thymus
T1 sequence (P08487 1-1291): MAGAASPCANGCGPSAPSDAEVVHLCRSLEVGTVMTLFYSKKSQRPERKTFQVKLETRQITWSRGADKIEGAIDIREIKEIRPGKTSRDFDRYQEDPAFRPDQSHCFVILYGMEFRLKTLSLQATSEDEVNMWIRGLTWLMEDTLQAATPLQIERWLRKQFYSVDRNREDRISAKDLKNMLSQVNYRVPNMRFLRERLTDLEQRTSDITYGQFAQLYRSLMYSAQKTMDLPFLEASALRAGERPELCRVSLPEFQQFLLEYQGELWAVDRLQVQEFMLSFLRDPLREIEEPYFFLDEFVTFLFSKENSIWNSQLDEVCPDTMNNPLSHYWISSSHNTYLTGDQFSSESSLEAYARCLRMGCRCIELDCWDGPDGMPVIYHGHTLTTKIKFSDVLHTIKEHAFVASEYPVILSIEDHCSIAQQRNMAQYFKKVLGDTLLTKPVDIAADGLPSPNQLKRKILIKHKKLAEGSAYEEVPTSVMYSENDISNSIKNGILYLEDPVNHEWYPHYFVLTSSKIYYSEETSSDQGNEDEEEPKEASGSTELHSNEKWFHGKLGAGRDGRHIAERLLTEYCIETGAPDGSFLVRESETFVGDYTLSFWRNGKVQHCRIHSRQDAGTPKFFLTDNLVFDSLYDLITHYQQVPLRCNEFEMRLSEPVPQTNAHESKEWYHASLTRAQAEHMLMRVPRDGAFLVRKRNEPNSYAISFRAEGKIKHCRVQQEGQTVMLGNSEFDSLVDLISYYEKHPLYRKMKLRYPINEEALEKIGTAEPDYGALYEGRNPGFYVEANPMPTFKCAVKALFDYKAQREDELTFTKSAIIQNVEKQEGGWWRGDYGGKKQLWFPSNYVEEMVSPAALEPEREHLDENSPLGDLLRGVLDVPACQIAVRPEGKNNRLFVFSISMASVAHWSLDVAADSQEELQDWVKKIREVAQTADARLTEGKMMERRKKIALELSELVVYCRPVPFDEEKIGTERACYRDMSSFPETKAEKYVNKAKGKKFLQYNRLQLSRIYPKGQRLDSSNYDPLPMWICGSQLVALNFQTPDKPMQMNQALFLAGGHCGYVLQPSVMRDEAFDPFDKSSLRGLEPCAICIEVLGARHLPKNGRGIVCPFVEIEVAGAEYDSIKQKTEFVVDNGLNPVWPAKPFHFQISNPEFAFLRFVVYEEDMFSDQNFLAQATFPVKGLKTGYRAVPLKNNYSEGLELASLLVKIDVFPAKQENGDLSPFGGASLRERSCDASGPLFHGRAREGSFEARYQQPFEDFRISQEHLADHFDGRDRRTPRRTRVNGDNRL
Protocol: A sample (PLC-γ1) was prepared from bovine thymus according to the method of Y. Homma et al. described in Biochemical Journal [(Biochem. J.), 269, 13 (1990)]. A solution having the composition listed in Table 1 below was prepared in advance on the ice and the reaction was begun with heating to 37° C. After incubation for 10 minutes, 2 ml of a solution mixture of chloroform/methanol (2:[…]) was added thereto to stop the reaction. The resulting inositol phosphate was extracted with 0.5 ml of 1N hydrochloric acid. Two-phase distribution was carried out by centrifugation (2000×g, 3 minutes), and the amount of ^3 H contained in 0.7 ml of the supernatant was measured with scintillation counter. […] The obtained value of specific radioactivity was defined as "A", the value of specific radioactivity obtained when an equivalent amount of water was added instead of the aqueous solution of the test peptide was defined as "B", the value of specific radioactivity obtained when an equivalent amount of water was added instead of the sample and the aqueous solution of the test peptide was defined as "C", and the inhibition rate (X) was determined according to the following equation. X(%)=[…]

KMS-4 cells = experiment: Cell proliferation-inhibiting activity (BrdU incorporation, Amersham Cell Proliferation Detection Kit); assay type: cell-based; details: Concentration 31 μM, 17 hours with peptide, BrdU-stained cells
Protocol: The following procedure was carried out with an Amersham Cell Proliferation Detection Kit. First, cells [KMS-4; M. Nanba et al., International Journal of Cancer, 32, 697 (1983)] were suspended in a DMEM culture medium (product of Nissui Seiyaku) containing 10% fetal calf serum to a concentration of 1-2×10^4 cells/ml, and 1 ml of the above-mentioned cell suspension was put into each well of a 24-well plate (product of Corning Co.). The cells were cultured for 2 days in a CO2 incubator (37° C., 5% CO2). Next, the culture medium was exchanged with a DMEM medium containing 10% fetal calf serum, and then the test peptide was added thereto and culturing was carried out for 17 hours. The culture medium was again exchanged with a serum-free DMEM medium, 0.5 ml of a solution of the reagents labelled 5-bromo-2'-deoxyuridine (BrdU) and 5-fluoro-2'-deoxyuridine (FdU) [10:1] diluted 1000-fold with the same medium was added to each well, and cultured for 2 hours. The culture medium was removed, and the cells were immobilized with an acetic acid/ethanol solution. The immobilized cells were stained according to the method for the Amersham Cell Proliferation Kit, and then further stained with a 1% Giemsa solution (product of Merck Co.). The number of cells incorporating BrdU and the total cell count within 1 field of vision of the microscope (approximately 200 cells) were determined, and the proportion (%) of stained cells per field of vision was calculated. Furthermore, the same procedure was repeated 10 times, and the average value thereof was defined as the cell proliferation activity (%). The cell proliferation-inhibiting activity was calculated in the following manner. The proliferation activity without addition of peptide was defined as "A", the proliferation activity with addition of the test peptide was defined as "B", and the cell proliferation inhibition rate (X) was determined according to the following equation. X (%)=[…]

[1] = Concentration 120 μM (aqueous solution of test peptide), read-out: Inhibition rate (%)

| Molecule | inhibition at 120 µM (stock) (PLC-γ1; [1]) [%] | Cell proliferation inhibition rate (%) (KMS-4 cells) | further results |
| --- | --- | --- | --- |
| CSCC[C@H](NC(=O)[C@H](CCCCN)NC(=O)[C@H](CCCNC(=N)N)NC(=O)[C@H](Cc1ccc(O)cc1)NC(=O)[C@H](CC(C)C)NC(=O)c1ccc(=O)oc1)C(=O)N[C@@H](CCCNC(=N)N)C(=O)N[C@@H](CC(C)C)C(=O)N[C@@H](CCCNC(=N)N)C(=O)N[C@@H](Cc1ccc(O)cc1)C(=O)N1CCC[C@H]1C(=O)N[C@H](C(N)=O)C(C)C [(I-12), C5 H3 O2 CO-Leu-Tyr-Arg-Lys-Met-Arg-Leu-Arg-Tyr-Pro-Val-NH2] (X2-LYRKMRLRYPV-NH2) | 40 | 69 | – |
| CSCC[C@H](NC(=O)[C@H](CCCCN)NC(=O)[C@H](CCCNC(=N)N)NC(=O)[C@H](Cc1ccc(O)cc1)NC(=O)[C@H](CC(C)C)NC(=O)c1cccc(O)c1O)C(=O)N[C@@H](CCCNC(=N)N)C(=O)N[C@@H](CC(C)C)C(=O)N[C@@H](CCCNC(=N)N)C(=O)N[C@@H](Cc1ccc(O)cc1)C(=O)N1CCC[C@H]1C(=O)N[C@H](C(N)=O)C(C)C [(I-13), (HO)2 C6 H3 CO-Leu-Tyr-Arg-Lys-Met-Arg-Leu-Arg-Tyr-Pro-Val-NH2] ({Benzoyl(2,3-diOH)}-LYRKMRLRYPV-NH2) | – | 69 | inhibition at 610 µM (stock) (PLC-γ1; Concentration 610 μM (aqueous solution of test peptide), read-out: Inhibition rate (%)): 89% |
| CSCC[C@H](NC(=O)[C@H](CCCCN)NC(=O)[C@H](CCCNC(=N)N)NC(=O)[C@H](Cc1ccc(O)cc1)NC(=O)[C@H](CC(C)C)NC(=O)c1ccc(O)cc1O)C(=O)N[C@@H](CCCNC(=N)N)C(=O)N[C@@H](CC(C)C)C(=O)N[C@@H](CCCNC(=N)N)C(=O)N[C@@H](Cc1ccc(O)cc1)C(=O)N1CCC[C@H]1C(=O)N[C@H](C(N)=O)C(C)C [(I-14), (HO)2 C6 H3 CO-Leu-Tyr-Arg-Lys-Met-Arg-Leu-Arg-Tyr-Pro-Val-NH2] (X1-LYRKMRLRYPV-NH2) | 45 | 59 | – |
| CSCC[C@H](NC(=O)[C@H](CCCCN)NC(=O)[C@H](CCCNC(=N)N)NC(=O)[C@H](Cc1ccc(O)cc1)NC(=O)[C@H](CC(C)C)NC(=O)c1cc(O)ccc1O)C(=O)N[C@@H](CCCNC(=N)N)C(=O)N[C@@H](CC(C)C)C(=O)N[C@@H](CCCNC(=N)N)C(=O)N[C@@H](Cc1ccc(O)cc1)C(=O)N1CCC[C@H]1C(=O)N[C@H](C(N)=O)C(C)C [(I-15), (HO)2 C6 H3 CO-Leu-Tyr-Arg-Lys-Met-Arg-Leu-Arg-Tyr-Pro-Val-NH2] ({Benzoyl(2,5-(OH)2)}-LYRKMRLRYPV-NH2) | 41 | 66 | – |
| CSCC[C@H](NC(=O)[C@H](CCCCN)NC(=O)[C@H](CCCNC(=N)N)NC(=O)[C@H](Cc1ccc(O)cc1)NC(=O)[C@H](CC(C)C)NC(=O)CCC1CCCCC1)C(=O)N[C@@H](CCCNC(=N)N)C(=O)N[C@@H](CC(C)C)C(=O)N[C@@H](CCCNC(=N)N)C(=O)N[C@@H](Cc1ccc(O)cc1)C(=O)N1CCC[C@H]1C(=O)N[C@H](C(N)=O)C(C)C [(I-16), C6 H11 CH2 CH2 CO-Leu-Tyr-Arg-Lys-Met-Arg-Leu-Arg-Tyr-Pro-Val-NH2] ({Propanoyl(3-cHex)}-LYRKMRLRYPV-NH2) | 51 | 84 | – |
| H-Glu-Lys-His-Ala-Leu-Tyr-Arg-Lys-Met -Arg-Leu-Arg-Tyr-Pro-Val-OH (H-EKHALYRKMRLRYPV-OH) [Compound (I-4)] | – | – | Inhibition rate (%) (PLC-γ1; Concentration 120 μM (aqueous solution of test peptide)): 73% |
| H-Leu-Tyr-Arg-Lys-Met-Arg-Leu-Arg-Tyr-Pro-Val-OH (H-LYRKMRLRYPV-OH) [Compound (I-5)] | – | – | Inhibition rate (%) (PLC-γ1; Concentration 125 μM (aqueous solution of test peptide)): 70% |
| H-SLVELVSYYEKHALYRKMRLRYPV-OH [Compound (I-1)] | – | – | inhibition at 15 µM (stock) (PLC-γ1; Concentration 15 μM (aqueous solution of test peptide), read-out: Inhibition rate (%)): 55%; inhibition at 55 µM (stock) (PLC-γ1; Concentration 55 μM (aqueous solution of test peptide), read-out: Inhibition rate (%)): 88% |
| H-Ser-Leu-Val-Glu-Leu-Val-Ser-Tyr-Tyr-Glu-Lys-His-Ala-OH (H-SLVELVSYYEKHA-OH) [Compound (I-6)] | – | – | Inhibition rate (%) (PLC-γ1; Concentration 105 μM (aqueous solution of test peptide)): 70% |
| H-YRKMRLRY-OH [Compound (I-7), H-Tyr-Arg-Lys-Met-Arg-Leu-Arg-Tyr-OH] | 70 | – | – |
